Each structure is given as a SMILES string.

The assay relates to E coli JT39. The assay can be described thus: Antibacterial Activity, standard MIC test. The class given is cell-based. To be noted: Escherichia coli, compound alone. The source says:
Using conventional methods the following results were obtained in a standard MIC test: […]

Consider `O=C(O)CCCCCCCCCCNC/C=C1\O[C@@H]2CC(=O)N2[C@H]1C(=O)O` [11 (b), 9-N-(10'-Carboxydecyl)aminodeoxyclavulanic acid], for which the MIC (in general, the smallest concentration in the dilution series that meets the test's criterion for growth inhibition) is > 500 µg/mL.

These data come from patent US4652560A, “A-deoxy-a-aza derivatives of clavulanic acid, a process for their preparation and their use” (Beecham Group p.l.c., priority 1979, dated 1987).
